Data as given in article PMC9770967, “Native holdup (nHU) to measure binding affinities from cell extracts” (Science Advances, 2022).
*1 amine or outer side, *2 acyl side, *3 side chain or, on linkers, in order; H or OH if unused. Where a SMILES comes first, the peptide text is derived from it. The star is where a group is joined. X1 = O=C(CCCC[C@@H]1SC[C@@H]2NC(=O)N[C@@H]21)NCCCOCCOCCOCCCN*; Suc = O=C(CCC(=O)[*:2])[*:1]

Key:
[1] = target: endogenous full-length SCRIB (Homo sapiens, UniProt Q14160); assay type: binding; details: titration, Jurkat extract
[2] = target: isolated PDZ domain of SNX27; details: 10-mer PBM peptide vs isolated PDZ domain, holdup; cited from earlier work
[3] = target: isolated PDZ domain of SNX27; details: calorimetry; cited from earlier work
SCRIB PDZ1 = details: fragmentomic, isolated PDZ domain; cited from earlier work
Description: Supplement sciadv.ade3828_table_s1.zip/sciadv.ade3828_table_s1.xlsx, sheet "nHU-WB_SP" | column: Domain-motif fragmentomic affinities (ProfAff)

SCRIB PDZ2 = details: fragmentomic, isolated PDZ domain; cited from earlier work
Description: (§1) Supplement sciadv.ade3828_table_s1.zip/sciadv.ade3828_table_s1.xlsx, sheet "nHU-WB_SP"

SCRIB PDZ3 = details: fragmentomic, isolated PDZ domain; cited from earlier work
Description: as §1

SCRIB PDZ4 = details: fragmentomic, isolated PDZ domain; cited from earlier work
Description: as §1

full-length SNX27 = assay: nHU-MS, recombinant full-length SNX27 bait, total Jurkat extracts; assay type: binding, human; details: apparent, Fig. 4D, n = 6
Experimental: The empty His6-AviTag-MBP-TEV vector was used to produce biotinylated MBP for control experiments. Proteins were coexpressed with BirA biotin ligase (PET21a-BirA, Addgene, no. 20857) in Escherichia coli BL21(DE3) cells. At isopropyl-β-D-thiogalactopyranoside (IPTG) induction (1 mM IPTG at 18°C overnight), 50 μM biotin was added to the media. Harvested cells were lysed in a buffer containing 50 mM tris (pH 7.5), 150 to 300 mM NaCl, 50 μM biotin, 2 mM β-mercaptoethanol, cOmplete EDTA-free protease inhibitor cocktail (Roche, Basel, Switzerland), 1% Triton X-100, and trace amount of deoxyribonuclease, ribonuclease, and lysozyme. Lysates were frozen at −20°C before further purification steps. Lysates were sonicated and centrifuged for clarification. Expressed proteins were captured on in-house prepacked Ni-IDA (Protino Ni-IDA Resin, Macherey-Nagel, Duren, Germany) columns and were washed with at least 10 column volumes of cold wash buffer [50 mM tris (pH 7.5), 150 mM NaCl, and 2 mM β-mercaptoethanol] before elution with 250 mM imidazole. The Ni elution was collected directly on a preequilibrated amylose column (amylose high flow resin, New England Biolabs, Ipswich, MA). […] The concentration of proteins was determined by their ultraviolet absorption at 280 nm before aliquots were snap-frozen in liquid nitrogen and stored at −80°C. […]

SNX27_PDZ [4] = assay: nHU-MS, SNX27_PDZ bait, total Jurkat extracts, series 1; assay type: binding, human; details: nHU-MS, total Jurkat extract
Experimental: The empty His6-AviTag-MBP-TEV vector was used to produce biotinylated MBP for control experiments. Proteins were coexpressed with BirA biotin ligase (PET21a-BirA, Addgene, no. 20857) in Escherichia coli BL21(DE3) cells. At isopropyl-β-D-thiogalactopyranoside (IPTG) induction (1 mM IPTG at 18°C overnight), 50 μM biotin was added to the media. Harvested cells were lysed in a buffer containing 50 mM tris (pH 7.5), 150 to 300 mM NaCl, 50 μM biotin, 2 mM β-mercaptoethanol, cOmplete EDTA-free protease inhibitor cocktail (Roche, Basel, Switzerland), 1% Triton X-100, and trace amount of deoxyribonuclease, ribonuclease, and lysozyme. Lysates were frozen at −20°C before further purification steps. Lysates were sonicated and centrifuged for clarification. Expressed proteins were captured on in-house prepacked Ni-IDA (Protino Ni-IDA Resin, Macherey-Nagel, Duren, Germany) columns and were washed with at least 10 column volumes of cold wash buffer [50 mM tris (pH 7.5), 150 mM NaCl, and 2 mM β-mercaptoethanol] before elution with 250 mM imidazole. The Ni elution was collected directly on a preequilibrated amylose column (amylose high flow resin, New England Biolabs, Ipswich, MA). Amylose column was washed with 5 column volumes of cold wash buffer before fractionated elution in a buffer containing 25 mM Hepes (pH 7.5), 150 mM NaCl, 1 mM TCEP, 10% glycerol, 5 mM maltose, and cOmplete EDTA-free protease inhibitor cocktail. The concentration of proteins was determined by their ultraviolet absorption at 280 nm before aliquots were snap-frozen in liquid nitrogen and stored at −80°C.
For saturating streptavidin resin with biotinylated peptides or biotin, 50 μl of streptavidin resin was mixed with biotin or peptide at 40 to 60 μM concentration in 6 to 6.5 resin volume for 60 min. To saturate streptavidin resin with biotinylated proteins, 50 μl of streptavidin resin (Streptavidin Sepharose High Performance, Cytiva) was mixed with biotinylated MBP or MBP-PDZ at 40 to 50 μM concentration in 20× resin volume for 60 min. After saturation, resins were washed a single time [10 resin volume, holdup buffer: 50 mM tris (pH 7.5), 300 mM NaCl, and 1 mM TCEP, 0.22-μm filtered] and were depleted with biotin (10 resin volume, 10 min, holdup buffer supplemented with 100 μM biotin). Last, resins were washed two times (10 resin volume, holdup buffer).
For single-point nHU experiments carried out at ~10 μM bait concentration, 50 μl of saturated streptavidin resin was mixed with 200 μl of cell lysate (2 mg/ml). Titration experiments were carried out by mixing control and bait-saturated resin and keeping the total resin volume constant; e.g., ~5 μM bait concentration can be achieved by mixing 25 μl of bait-saturated streptavidin resin with 25 μl of control resin and 200 μl of cell lysate (2 mg/ml). Control and bait-saturated resins were prepared in larger amounts, and a serial dilution was prepared with these presaturated resins to achieve different resin ratios.
Unless specified elswhere, the nHU mixture was incubated at 4°C for 2 hours. After the incubation ended, the resin was separated from the supernatant by a brief centrifugation (15 s, 2000 g). Then, half of the supernatant was removed by pipetting without any delay to avoid any resin contamination; e.g., 100 μl of supernatant is collected if 200 μl of cell lysate was used as analyte. Alternatively, the supernatant can be centrifuged an additional time to clarify it further, removing any possible resin contamination. In principle, the separation of the supernatant should be as fast as possible since any delay can perturb the equilibrium. […] Alternatively, the resin can be separated from the supernatant using filter plates (e.g., various products of Millipore, Burlington, MA) or spin columns (e.g., Pierce spin cups—cellulose acetate filter from Thermo Fisher Scientific, Waltham, MA) to achieve faster separation. […]

SNX27_PDZ [5] = assay: AP-MS control pull-down on leftover resin, SNX27_PDZ bait, total Jurkat extracts; assay type: binding, human; details: AP-MS control pull-down, total Jurkat extract
Experimental: Leftover beads from nHU-MS experiments were washed three times immediately after the separation of the supernatant [10 resin volume in buffer containing 50 mM tris (pH 8.5), 150 mM NaCl, 1% Triton X-100, 10× cOmplete EDTA-free protease inhibitor cocktail, 2 mM EDTA, and 1 mM TCEP]. Then, the beads were washed two times [10 resin volume buffer containing 50 mM tris (pH 8.5), 150 mM NaCl, and 1 mM TCEP]. Last, captured protein was eluted from the resin in two steps, and the eluted fractions were pooled. For each elution, the beads were incubated for 30 min with three resin volume buffer containing 20 mM tris (pH 8.5), 100 mM NaCl, 500 μM TCEP, and 8 M urea. Between each step, the beads were separated by mild centrifugation, and the supernatant was removed by gentle pipetting.
The nHU samples were precipitated with trichloroacetic acid (TCA) 20% overnight at 4°C and centrifuged at 14,000 rpm for 10 min at 4°C. The protein pellets were washed twice with 1 ml of cold acetone and air-dried. The protein extracts were solubilized in 8 M urea, reduced with 5 mM TCEP for 30 min, and alkylated with 10 mM iodoacetamide for 30 min in the dark. Double digestion was performed at 37°C with 500 ng of endoproteinase Lys-C (Wako, Richmond, USA) for 4 hours, followed by fourfold dilution and an overnight digestion with 500 ng of trypsin (Promega, Charbonnieres les Bains, France). Peptide mixtures were then desalted on a C18 spin-column and dried on a speed vacuum.
Samples were analyzed using an Ultimate 3000 nano-RSLC coupled in line via a nano-electrospray ionization source, with an LTQ-Orbitrap ELITE mass spectrometer (Thermo Fisher Scientific, San Jose, CA) or with the Orbitrap Exploris 480 mass spectrometer (Thermo Fisher Scientific, Bremen, Germany) equipped with a high field asymmetric ion mobility spectrometry (FAIMS) module. Peptide mixtures were injected in 0.1% trifluoroacetic acid on a C18 Acclaim PepMap100 trap column [75 μm inner diameter (ID) × 2 cm, 3 μm, 100 Å, Thermo Fisher Scientific] for 3 min at 5 μl/min with 2% acetonitrile (ACN) and 0.1% formic acid (FA) in H2O and then separated on a C18 Acclaim PepMap100 nano-column (75 μm ID × 50 cm, 2.6 μm, 150 Å, Thermo Fisher Scientific) at 300 nl/min and 40°C with a 90-min linear gradient from 5 to 30% buffer B (A: 0.1% FA in H2O/B: 80% ACN, 0.1% FA in H2O) and regeneration at 5% B. Spray voltage was set to 2.1 kV and heated capillary temperature was set to 280°C.
For the Orbitrap Elite, the mass spectrometer was operated in positive ionization mode in data-dependent mode with survey scans from mass/charge ratio (m/z) 350 to 1500 acquired in the Orbitrap at a resolution of 120,000 at m/z 400. The 20 most intense peaks from survey scans were selected for further fragmentation in the linear ion trap with an isolation window of 2.0 Da and were fragmented by collision-induced dissociation (CID) with a normalized collision energy of 35% (TOP 20 CID method). Unassigned and single-charged states were excluded from fragmentation. The ion target value for the survey scans (in the Orbitrap) and the MS2 mode (in the linear ion trap) were set to 1E6 and 5E3, respectively, and the maximum injection time was set to 100 ms for both scan modes. Dynamic exclusion was set to 20 s after one repeat count with mass width at ±10 parts per million (ppm). […]

endogenous full-length SCRIB, sequence (Q14160 whole entry, the tested form may be a part): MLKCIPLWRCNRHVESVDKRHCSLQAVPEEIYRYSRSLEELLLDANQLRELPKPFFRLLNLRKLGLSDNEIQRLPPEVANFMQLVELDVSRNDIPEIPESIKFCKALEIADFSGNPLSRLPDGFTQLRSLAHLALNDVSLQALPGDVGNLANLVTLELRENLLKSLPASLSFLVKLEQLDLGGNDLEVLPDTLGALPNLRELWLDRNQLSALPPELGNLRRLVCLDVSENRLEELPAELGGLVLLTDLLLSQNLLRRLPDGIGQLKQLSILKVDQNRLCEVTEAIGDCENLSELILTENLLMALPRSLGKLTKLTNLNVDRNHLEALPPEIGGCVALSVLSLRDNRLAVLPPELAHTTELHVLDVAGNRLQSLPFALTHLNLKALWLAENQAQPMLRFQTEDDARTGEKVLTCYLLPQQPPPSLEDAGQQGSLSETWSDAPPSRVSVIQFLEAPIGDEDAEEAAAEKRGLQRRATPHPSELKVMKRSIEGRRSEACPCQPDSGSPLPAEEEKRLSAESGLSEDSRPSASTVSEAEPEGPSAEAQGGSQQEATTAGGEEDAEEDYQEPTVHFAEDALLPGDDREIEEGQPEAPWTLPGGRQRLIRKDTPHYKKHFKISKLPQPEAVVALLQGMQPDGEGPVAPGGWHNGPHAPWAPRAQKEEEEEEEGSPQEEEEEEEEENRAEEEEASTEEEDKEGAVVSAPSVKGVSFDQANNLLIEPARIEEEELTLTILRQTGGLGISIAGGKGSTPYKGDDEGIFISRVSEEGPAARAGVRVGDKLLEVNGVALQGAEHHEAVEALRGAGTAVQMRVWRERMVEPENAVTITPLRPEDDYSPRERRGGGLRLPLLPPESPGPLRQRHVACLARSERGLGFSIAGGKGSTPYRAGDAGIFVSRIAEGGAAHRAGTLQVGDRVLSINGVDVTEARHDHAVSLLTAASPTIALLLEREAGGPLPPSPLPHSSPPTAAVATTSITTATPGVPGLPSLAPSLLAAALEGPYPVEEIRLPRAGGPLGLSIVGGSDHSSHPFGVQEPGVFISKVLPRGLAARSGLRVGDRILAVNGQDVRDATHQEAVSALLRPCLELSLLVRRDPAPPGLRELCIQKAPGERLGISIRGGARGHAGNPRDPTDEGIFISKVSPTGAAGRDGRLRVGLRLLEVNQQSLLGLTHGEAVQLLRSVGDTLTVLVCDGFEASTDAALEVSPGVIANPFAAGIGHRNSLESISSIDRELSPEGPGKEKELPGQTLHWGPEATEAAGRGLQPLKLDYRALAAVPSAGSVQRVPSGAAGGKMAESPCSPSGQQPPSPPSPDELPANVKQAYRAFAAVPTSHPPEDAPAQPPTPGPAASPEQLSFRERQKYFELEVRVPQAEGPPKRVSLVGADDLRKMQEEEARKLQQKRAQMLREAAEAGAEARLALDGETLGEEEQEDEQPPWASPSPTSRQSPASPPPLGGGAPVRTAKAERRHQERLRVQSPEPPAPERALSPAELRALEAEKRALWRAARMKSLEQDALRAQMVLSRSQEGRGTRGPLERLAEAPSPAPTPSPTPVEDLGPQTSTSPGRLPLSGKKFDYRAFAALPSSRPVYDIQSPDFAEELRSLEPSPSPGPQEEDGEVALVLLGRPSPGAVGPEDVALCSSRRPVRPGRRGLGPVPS

**Q.** Which Hill coefficient ([1]; Hill equation fit, three replicates) does the source give for `CC[C@H](C)[C@H](NC(=O)CCC(=O)NCCCOCCOCCOCCCNC(=O)CCCC[C@@H]1SC[C@@H]2NC(=O)N[C@@H]21)C(=O)N[C@@H](CCC(N)=O)C(=O)N[C@@H](CCCNC(=N)N)C(=O)N[C@@H](CCC(=O)O)C(=O)N[C@@H](CC(=O)O)C(=O)N[C@@H](CCC(N)=O)C(=O)N[C@@H](CCC(=O)O)C(=O)N[C@H](C(=O)N[C@@H](C)C(=O)N[C@H](C(=O)O)C(C)C)[C@@H](C)O` [DGKZ] ({X1-Suc}-IQREDQETAV-OH; C-terminus assumed) here?
**A.** 0.6

**Q.** What about the cooperativity [1] of the same compound?
**A.** negative cooperativity

**Q.** What about the “pKd (fragmentomic affinity)” value [2] of the same compound?
**A.** 6.0

**Q.** What about the pKd [3] of the same compound?
**A.** 5.7

**Q.** What about the pKd_PDZ1 (SCRIB PDZ1) of the same compound?
**A.** 4.71

**Q.** What about the pKd_PDZ2 (SCRIB PDZ2) of the same compound?
**A.** 4.86

**Q.** What about the pKd_PDZ3 (SCRIB PDZ3) of the same compound?
**A.** 5.05

**Q.** What about the pKd_PDZ4 (SCRIB PDZ4) of the same compound?
**A.** 4.40

**Q.** For SNX1: component of the SNX-BAR complex, which pKapp (full-length SNX27) is on record?
**A.** 5.47

**Q.** Which results are given for MACROH2A1?
**A.** Ratio_HU (SNX27_PDZ [4]; SNX27/MBP, sheet "SNX27&Jurkat"): 0.6592; BI_HU (SNX27_PDZ [4]; SNX27 bait vs MBP control, sheet "SNX27&Jurkat"): 0.3408; pKapp_HU_not_filtered (SNX27_PDZ [4]; SNX27 bait, not filtered for significance): 4.715; FC_HU (SNX27_PDZ [4]; SNX27 vs MBP control, sheet "SNX27&Jurkat"): -0.6013; Ratio_AP (SNX27_PDZ [5]; SNX27/MBP): 19.7749; FC_AP (SNX27_PDZ [5]; SNX27 vs MBP): 4.3056; BINDER_AP (SNX27_PDZ [5]; BINDS / DOES NOT BIND): BINDS

**Q.** For `CC(C)C[C@H](NC(=O)[C@H](CO)NC(=O)[C@H](CO)NC(=O)CCC(=O)NCCCOCCOCCOCCCNC(=O)CCCC[C@@H]1SC[C@@H]2NC(=O)N[C@@H]21)C(=O)N[C@@H](CCC(N)=O)C(=O)N[C@@H](CO)C(=O)N[C@@H](CC(C)C)C(=O)N[C@@H](CCC(=O)O)C(=O)N[C@H](C(=O)N[C@@H](CO)C(=O)N[C@H](C(=O)O)C(C)C)[C@@H](C)O` [ATP2B4] ({X1-Suc}-SSLQSLETSV-OH; C-terminus assumed), which “pKd (fragmentomic affinity)” value [2] is on record?
**A.** 5.70

**Q.** What about the pKd_PDZ1 (SCRIB PDZ1) of the same compound?
**A.** 5.03

**Q.** What about the pKd_PDZ2 (SCRIB PDZ2) of the same compound?
**A.** 4.90

**Q.** What about the pKd_PDZ3 (SCRIB PDZ3) of the same compound?
**A.** 5.11

**Q.** And the pKd_PDZ4 (SCRIB PDZ4)?
**A.** 4.38
